The values below come from US7897565B2, “Compositions for HCV treatment” (priority 2004, dated 2011).

Assay [1] has as its system HCV replicon cells clone A. The assay is classed as cell-based, hepatitis C virus. As to conditions: 1 mg/ml G418. On the procedure:
HCV replicon cells clone A are treated with various concentrations of NIM811 and BILN2061 either alone or in combination in the presence of 1 mg/ml G418.

For assay [2], the system named is HCV replicon cells clone A. Description: nine-day viral RNA reduction assay (quantitative RT-PCR). Format: cell-based, hepatitis C virus. On the procedure:
Analysis of the effect of combination treatment, are examined using nine-day viral RNA reduction assays. HCV replicon cells clone A are treated with compounds in DMEM supplemented with 10% FBS and 0.2% DMSO for 3, 6, or 9 days, then the total intracellular RNA is extracted, and the level of HCV RNA is determined by real-time quantitative RT-PCR (Taqman) using HCV-specific primers and probe as described above. For each treatment, the quantity of HCV RNA is normalized against the amount of total RNA extracted, which is determined in a Quant-iT assay (Molecular Probe). The log reduction of HCV RNA is calculated by comparing the level of HCV RNA in compound-treated cells to that of untreated cells.

In assay [3] the target is human recombinant cyclophilin (Homo sapiens, UniProt P62937). Description: competitive ELISA for binding to cyclophilin (Binding Ratio vs cyclosporin A). As to conditions: negative value = binding stronger than cyclosporin A. The procedure:
A cyclosporin is considered as binding to cyclophilin if it binds to human recombinant cyclophilin at least one fifth as well as does cyclosporin A in the competitive ELISA test described by Quesniaux in Eur. J. Immunol. 1987 17:1359-1365. In this test, the cyclosporin to be tested is added during the incubation of cyclophilin with coated BSA-cyclosporin A and the concentration required to give a 50% inhibition of the control reaction without competitor is calculated (IC50). The results are expressed as the Binding Ratio (BR), which is the log to the base 10 of the ratio of the IC50 of the test compound and the IC50 in a simultaneous test of cyclosporin A itself.

The subject of assay [4] is Balb/c spleen cells. As to the kind of experiment: Mixed Lymphocyte Reaction (MLR), activity relative to cyclosporin A. Format: cell-based, mice. An excerpt:
Cyclosporins which bind strongly to cyclophilin but are not immunosuppressive have been identified. A cyclosporin is considered to be non-immunosuppressive when it has an activity in the Mixed Lymphocyte Reaction (MLR) of no more than 5%, preferably no more than 2%, that of cyclosporin A. The Mixed Lymphocyte Reaction is described by T. Meo in “Immunological Methods”, L. Lefkovits and B. Peris, Eds., Academic Press, N.Y. pp. 227-239 (1979). Spleen cells (0.5×10^6) from Balb/c mice (female, 8˜10 weeks) are co-incubated for 5 days with 0.5×10^6 irradiated (2000 rads) or mitomycin C treated spleen cells from CBA mice (female, 8˜10 weeks). The irradiated allogeneic cells induce a proliferative response in the Balb/c spleen cells which can be measured by labeled precursor incorporation into the DNA. […] The IC50 found for the test compound in the MLR is compared with that found for cyclosporin A in a parallel experiment. In addition, non-immunosuppressive cyclosporins lack the capacity of inhibiting CN and the downstream NF-AT pathway.

Non-standard residues stand in square brackets, D forms with d. Residues, ends and D or L forms follow the SMILES beside them. ξ: configuration not given here. ξNMeBmt = C/C=C/C[C@@H](C)[C@@H](O)C(NC)C(=O)O; NMeL = CN[C@@H](CC(C)C)C(=O)O; NMeV = CN[C@H](C(=O)O)C(C)C; NMeA = CN[C@@H](C)C(=O)O; Abu = CC[C@H](N)C(=O)O; Sar = CNCC(=O)O

Sequence of human recombinant cyclophilin (P62937 whole entry): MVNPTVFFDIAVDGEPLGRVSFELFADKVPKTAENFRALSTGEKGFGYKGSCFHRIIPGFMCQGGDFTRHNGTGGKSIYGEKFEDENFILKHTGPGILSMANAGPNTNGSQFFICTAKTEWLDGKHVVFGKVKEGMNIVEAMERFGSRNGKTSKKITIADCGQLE

On to `COc1ccc2c(O[C@@H]3C[C@H]4C(=O)N[C@]5(C(=O)O)C[C@H]5/C=C\CCCCC[C@H](NC(=O)OC5CCCC5)C(=O)N4C3)cc(-c3csc(NC(C)C)n3)nc2c1` [BILN2061], for which, in assay [1], the “treatment time after which resistant colonies start to form” value was determined as 2 weeks. As to `C/C=C/C[C@@H](C)[C@@H](O)[C@H]1C(=O)N[C@@H](CC)C(=O)N(C)CC(=O)N(C)[C@@H]([C@@H](C)CC)C(=O)N[C@@H](C(C)C)C(=O)N(C)[C@@H](CC(C)C)C(=O)N[C@@H](C)C(=O)N[C@H](C)C(=O)N(C)[C@@H](CC(C)C)C(=O)N(C)[C@@H](CC(C)C)C(=O)N(C)[C@@H](C(C)C)C(=O)N1C` [NIM811, [Melle]^4-Ciclosporin], the “log reduction of HCV RNA” value was 1.2 log in assay [2] (0.5 μM NIM811 alone, 9 days of treatment) and “greater than 3 log” in assay [2] (1 μM NIM811 alone, 9 days of treatment). Moreover, the “BR (Binding Ratio): log to the base 10 of the ratio of the IC50 of the test compound and the IC50 of cyclosporin A” value (“BR (Binding Ratio): log” below) in assay [3] was −0.2. Consider `CC[C@@H]1NC(=O)C([C@H](O)[C@H](C)C/C=C/CO)N(C)C(=O)[C@H](C(C)C)N(C)C(=O)[C@H](CC(C)C)N(C)C(=O)[C@H](CC(C)C)N(C)C(=O)[C@@H](C)NC(=O)[C@H](C)NC(=O)[C@H](CC(C)C)N(C)C(=O)[C@H](C(C)C)NC(=O)[C@H](CC(C)C)N(C)C(=O)CN(C)C1=O` (stereo partly shown) [[8′-hydroxy-MeBmt]^5-Ciclosporin], for which the “BR (Binding Ratio): log” value in assay [3] is on record as 0.35. In assay [4], the “IR (Immunosuppressive Ratio), percentage of the activity relative to Cyclosporin A” value is reported as 1.8%. Turning to `C/C=C/C[C@@H](C)[C@@H](O)C1C(=O)N[C@@H](CC)C(=O)N(C)CC(=O)N(C)[C@@H](CC(C)C)C(=O)N[C@@H](C(C)C)C(=O)N(C)[C@@H](C)C(=O)N[C@@H](C)C(=O)N[C@H](C)C(=O)N(C)[C@@H](CC(C)C)C(=O)N(C)[C@@H](CC(C)C)C(=O)N(C)[C@@H](C(C)C)C(=O)N1C` (stereo partly shown) [[MeAla]^6-Ciclosporin] (cyclo(A[dA][NMeL][NMeL][NMeV][ξNMeBmt][Abu][Sar][NMeL]V[NMeA])), the “BR (Binding Ratio): log” value in assay [3] is listed as −0.4. The “IR (Immunosuppressive Ratio), percentage of the activity relative to Cyclosporin A” value in assay [4] came to 3.2%. For `CC=CCC(C)C(O)C1C(=O)NC(CC)C(=O)N(C)CC(=O)N(C)C(C(C)C)C(=O)NC(C(C)C)C(=O)N(C)C(CC(C)C)C(=O)NC(C)C(=O)NC(C)C(=O)N(C)C(CC(C)C)C(=O)N(C)C(CC(C)C)C(=O)N(C)C(C(C)C)C(=O)N1C` (stereo not shown) [[MeVal]^4-Ciclosporin], the “BR (Binding Ratio): log” value in assay [3] is recorded as 0.1.

As to `C/C=C/C[C@@H](C)[C@@H](O)C1C(=O)N[C@@H](CC)C(=O)N(C)CC(=O)N(C)[C@@H](CC(C)C)C(=O)N(C)[C@@H](C(C)C)C(=O)N(C)[C@@H](CC(C)C)C(=O)N[C@@H](C)C(=O)N[C@H](C)C(=O)N(C)[C@@H](CC(C)C)C(=O)N(C)[C@@H](CC(C)C)C(=O)N(C)[C@@H](C(C)C)C(=O)N1C` (stereo partly shown) [[MeVal]^5-Ciclosporin], in assay [3], the “BR (Binding Ratio): log” value is listed as 0.4. Besides, in assay [4], the “IR (Immunosuppressive Ratio), percentage of the activity relative to Cyclosporin A” value was determined as 5.3%. The corresponding values for `C/C=C/C[C@@H](C)[C@@H](O)C1C(=O)N[C@@H](CC)C(=O)N(C)CC(=O)N(C)[C@@H](CC(C)C)C(=O)N[C@@H](C(C)C)C(=O)N(C)[C@@H](CC(C)C)C(=O)N[C@@H](C)C(=O)N[C@H](C)C(=O)N(C)[C@@H](CC(C)(C)O)C(=O)N(C)[C@@H](CC(C)C)C(=O)N(C)[C@@H](C(C)C)C(=O)N1C` (stereo partly shown) [[γ-hydroxy-MeLeu]^9-Ciclosporin] are 0.15 and 2.9%.

Take IFN-α: in assay [2] (5 U/ml IFN-α alone, 9 days), the “log reduction of HCV RNA” value is listed as 1.2 log.

Turning to [Ethyl-Ile]^4-Ciclosporin, the “BR (Binding Ratio): log” value in assay [3] was 0.1.

As to [Ethyl-Val]^4-Ciclosporin, in assay [3], the “BR (Binding Ratio): log” value is 0.
